Assay [1] concerns the target T1, SIRT1(183-664) (Homo sapiens, UniProt Q96EB6).
T1 construct: the truncated version used for biophysical studies SIRT1(183-664); made in house
T1 sequence (Q96EB6 183-664): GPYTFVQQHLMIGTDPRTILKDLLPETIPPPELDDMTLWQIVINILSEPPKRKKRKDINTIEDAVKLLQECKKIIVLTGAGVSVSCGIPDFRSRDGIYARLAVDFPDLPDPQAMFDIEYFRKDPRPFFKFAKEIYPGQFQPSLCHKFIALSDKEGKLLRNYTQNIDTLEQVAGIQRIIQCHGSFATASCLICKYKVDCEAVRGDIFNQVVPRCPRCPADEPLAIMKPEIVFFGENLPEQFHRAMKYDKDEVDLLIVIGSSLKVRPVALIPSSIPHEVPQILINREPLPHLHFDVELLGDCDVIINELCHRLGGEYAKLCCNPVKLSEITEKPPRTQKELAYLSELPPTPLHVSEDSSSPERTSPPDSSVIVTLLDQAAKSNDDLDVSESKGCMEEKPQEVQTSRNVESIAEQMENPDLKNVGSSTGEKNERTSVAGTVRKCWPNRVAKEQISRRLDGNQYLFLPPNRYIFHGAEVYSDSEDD
As to the kind of experiment: Fluorescence binding experiment with SIRT1(183-664). The settings on record: excitation 315 nm, emission 450 nm; read-out: Kx (μM), Fluorescence. As for the experimental part:
All peptides were prepared by BioPeptide (San Diego, Calif.) and shown to be at least 95% pure by analytical HPLC analysis. Bovine glutamate dehydrogenase (GDH), α-ketoglutarate, NADH and NAD^+ were from Sigma Chemical Company. Full-length, human SIRT1 and the truncated version used for biophysical studies SIRT1(183-664) were prepared as described previously, and shown to have equivalent kinetic properties (Milne et al. (2007) Nature 450, 712-716). The nicotinamidase PNC1 was prepared as described by Denu and colleagues (Smith et al. (2009) Anal Biochem 394, 101-109).
SIRT1(183-664) was dialyzed against a buffer composed of 137 mM NaCl, 2.7 mM KCl, 1 mM MgCl2, 2 mM TCEP, 5% (v/v) glycerol and 50 mM HEPES-NaOH, pH 7.3. 14 was dissolved in the final dialysis buffer and its pH values were adjusted to match that of the protein solution. The fluorescence emission spectra of 14 in the absence or presence of different concentrations of enzyme was monitored on the SpectraMax M5 with excitation at 315 nm. The fluorescence intensity change at 450 nm was plotted against the concentration of SIRT1(183-664) and fitted using a standard binding equation.

For assay [2], the target named is Ac-Arg-His-Lys-Lys^Ac-Trp-NH2. Description: ITC binding of STACs to Ac-Arg-His-Lys-Lys^Ac-X, X=TrpNH2. The conditions noted are these: 10% DMSO for SRT1720, SRT2183 and 10, no cosolvent for SRT1460. On the procedure:
(§1) ITC experiments were performed using either a VP-ITC system or iTC200 system (MicroCal) at 26° C. in a buffer composed of 137 mM NaCl, 2.7 mM KCl, 1 mM MgCl2, 2 mM TCEP, 5% (v/v) glycerol and 50 mM HEPES-NaOH, pH 7.3. SIRT1(183-664) was purified and dialyzed against the buffer, centrifuged, and degassed before the experiment. The peptide and compounds were dissolved in the final dialysis buffer and their pH values were adjusted to match that of the protein solution. […] To characterize this interaction using the iTC200 system, 1 mM TAMRA-peptide was injected in 20 aliquots of 2 μL, (except the first injection, which was 0.5 μL) into a 0.202 mL sample cell containing 100 μM STAC. For STACs with poor solubility, the concentrations were adjusted accordingly. […] In all cases, data was corrected for the heat of dilution and fitted using a nonlinear least-squares routine using a single-site binding model with Origin for ITC v7.0383 (Microcal) with the stoichiometry (n), the enthalpy of the reaction (ΔH) and the association constant (Ka) calculated. Table 2 summarizes Kd values for the binding of STACs to […]. Note that except for SRT1460, the solubility of the compounds required that these ITC experiments be done in solutions containing 10% DMSO.

Assay [3] addresses Ac-Arg-His-Lys-Lys^Ac-NH2. As to the kind of experiment: ITC binding of STACs to Ac-Arg-His-Lys-Lys^Ac-X, X=NH2. The settings on record: 10% DMSO for SRT1720, SRT2183 and 10, no cosolvent for SRT1460. As for the experimental part: as §1
For assay [4], the target named is Ac-Arg-His-Lys-Lys^Ac-AMC. Description: ITC binding of STACs to Ac-Arg-His-Lys-Lys^Ac-X, X=AMC. The conditions noted are these: 10% DMSO for SRT1720, SRT2183 and 10, no cosolvent for SRT1460. On the procedure: as §1

pKd: −log10 of the molar value. Where a name gives a salt, the structure may show the parent alone. Bounds are passed on as bounds.

For `CN(C)CCCNc1cc(-c2nc3c(NC(=O)c4ccc(CN5CCNCC5)cc4)cccc3[nH]2)ccn1` [Compound 14, N-(2-(2-(3-(dimethylamino)propylamino)pyridin-4-yl)-1H-benzo[d]imidazol-4-yl)-4-(piperazin-1-ylmethyl)benzamide trihydrochloride], the Kd in assay [1] amounted to 0.27 µM.

Consider `CCCCc1nc(NC2CCNCC2)cc(C(=O)Nc2ccccc2-c2nc3cc(COC4CCNCC4)cnc3s2)n1` [Compound 10, 2-butyl-6-(piperidin-4-ylamino)-N-(2-(6-((piperidin-4-yloxy)methyl)thiazolo[5,4-b]pyridin-2-yl)phenyl)pyrimidine-4-carboxamide], for which the pKd in assay [2] was 4.60; in assay [3] it was below 3.30; in assay [4] it was below 3.30. Moreover, the “Kd for binding to Ac-Arg-His-Lys-Lys^Ac-X, X=TrpNH2” value in assay [2] is on record as “binds”.

Regarding `COc1cc(C(=O)Nc2ccccc2-c2cn3c(CN4CCNCC4)csc3n2)cc(OC)c1OC` [SRT1460], the pKd in assay [2], in assay [3] and in assay [4] was below 3.30 throughout.

As for `CN(C)Cc1cnc2sc(-c3ccccc3NC(=O)c3cnc4ccccc4n3)nc2c1` [Compound 2, N-(2-(6-((dimethylamino)methyl)thiazolo[5,4-b]pyridin-2-yl)phenyl)quinoxaline-2-carboxamide], in assay [1], the Kd amounted to 0.27 µM.

By pKd is commonly meant the Kd on a negative log10 scale, so that one unit is a factor of ten. A higher pKd goes with a small Kd.
